In patent US20220127247A1, “N-(PYRIDIN-2-YL)PYRIDINE-SULFONAMIDE DERIVATIVES AND THEIR USE IN THE TREATMENT OF DISEASE” (NOVARTIS AG, priority 2019, published 2022):

Tests used:
delF508-CFTR [1] = target: T1, delF508-CFTR (Homo sapiens, UniProt P13569, DEL508-508); test: delF508-CFTR functional activity in primary human bronchial epithelial cells (HBECs), Multi-Transepithelial Clamp Circuit (MTECC-24) assay; type: cell-based; settings: for EC50: primary human delF508-CFTR bronchial epithelial cells, 24 h with compound, equivalent short circuit current (Ieq), forskolin plus potentiator, mean of at least two replicates, read-out: MTECC24-CFHBEC EC50; for MTECC24-CFHBEC Amax %: test compound added 24 h before assay, with potentiator (S)-3-amino-6-methoxy-N-(3,3,3-trifluoro-2-hydroxy-2-methylpropyl)-5-(trifluoromethyl)picolinamide, relative to 2 μM 3-(6-(1-(2,2-difluorobenzo[d][1,3]dioxol-5-yl)cyclopropane-1-carboxamido)-3-methylpyridin-2-yl)benzoic acid + 0.5 μM N-(2,4-di-tert-butyl-5-hydroxyphenyl)-4-oxo-1,4-dihydroquinoline-3-carboxamide
T1 construct: expressed in transfected cells
T1 sequence (P13569 with tags, fused parts or gaps DEL508-508): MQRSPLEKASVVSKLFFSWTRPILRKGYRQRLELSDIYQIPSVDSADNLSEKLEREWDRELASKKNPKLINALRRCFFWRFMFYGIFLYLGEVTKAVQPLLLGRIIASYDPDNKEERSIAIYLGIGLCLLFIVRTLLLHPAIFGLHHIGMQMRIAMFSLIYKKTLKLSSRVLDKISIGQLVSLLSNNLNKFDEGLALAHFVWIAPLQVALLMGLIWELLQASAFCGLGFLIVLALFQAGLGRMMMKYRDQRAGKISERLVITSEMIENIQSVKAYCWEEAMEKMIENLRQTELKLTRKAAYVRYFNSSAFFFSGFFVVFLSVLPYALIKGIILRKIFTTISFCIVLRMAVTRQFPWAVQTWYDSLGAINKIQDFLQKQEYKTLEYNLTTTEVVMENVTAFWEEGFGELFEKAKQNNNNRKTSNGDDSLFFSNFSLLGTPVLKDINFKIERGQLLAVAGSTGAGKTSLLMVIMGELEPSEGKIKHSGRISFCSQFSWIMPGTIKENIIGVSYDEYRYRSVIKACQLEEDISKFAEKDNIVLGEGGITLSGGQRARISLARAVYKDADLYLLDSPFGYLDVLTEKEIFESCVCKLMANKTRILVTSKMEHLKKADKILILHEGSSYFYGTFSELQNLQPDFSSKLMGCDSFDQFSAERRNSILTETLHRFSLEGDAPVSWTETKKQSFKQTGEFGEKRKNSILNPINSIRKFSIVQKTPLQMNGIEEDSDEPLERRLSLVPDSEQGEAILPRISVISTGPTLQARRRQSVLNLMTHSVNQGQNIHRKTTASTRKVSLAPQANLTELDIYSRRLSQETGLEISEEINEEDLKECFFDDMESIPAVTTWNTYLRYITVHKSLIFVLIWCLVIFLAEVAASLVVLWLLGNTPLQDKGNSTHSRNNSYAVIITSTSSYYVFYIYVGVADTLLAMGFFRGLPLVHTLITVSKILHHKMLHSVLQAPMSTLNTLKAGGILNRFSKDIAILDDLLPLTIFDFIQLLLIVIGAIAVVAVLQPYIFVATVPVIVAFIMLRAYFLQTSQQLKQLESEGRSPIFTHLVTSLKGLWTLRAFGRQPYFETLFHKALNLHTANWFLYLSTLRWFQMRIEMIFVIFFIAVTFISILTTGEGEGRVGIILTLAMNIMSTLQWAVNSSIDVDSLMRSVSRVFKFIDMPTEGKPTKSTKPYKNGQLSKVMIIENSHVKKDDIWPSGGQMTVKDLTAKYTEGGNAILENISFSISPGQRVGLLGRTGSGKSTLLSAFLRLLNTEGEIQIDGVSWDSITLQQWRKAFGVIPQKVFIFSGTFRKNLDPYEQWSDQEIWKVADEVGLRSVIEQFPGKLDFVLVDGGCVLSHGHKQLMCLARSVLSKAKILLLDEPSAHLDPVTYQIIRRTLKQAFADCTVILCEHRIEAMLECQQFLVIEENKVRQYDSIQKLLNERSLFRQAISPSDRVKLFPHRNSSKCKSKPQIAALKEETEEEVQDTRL
Excerpt: Measurement of delF508-CFTR Functional Activity in Primary Human Bronchial Epithelial Cells (HBECs) Using Multi-Transepithelial Clamp Circuit (MTECC-24) Assay
This assay measures the functional activity of the CFTR channel (Chloride ion transport) in patient derived primary human bronchial epithelial cells with forskolin activation and in the presence of the CFTR corrector/potentiator combination.
Primary human delF508-CFTR bronchial epithelial cells were and cultured according to previously established methods (Neuberger, T. et, al., Methods in Molecular Biology, 2011, 741, pp 39-54). Briefly, before thawing the HBEC cells, T25 flasks were coated with 2 mL of 3T3 conditioned media (MTI-GlobalStem, Cat #GSM9100) for at least 12 hours in 37° C. CO2 incubator. 1.7×10^5 cells were seeded into one T25 flask with 5 mL of HBE growth media (BEBM with supplements (Lonza, Cat #CC-3170) with 10 nM of retinoic acid (Sigma, Cat #R-2625) and 1% of PSA (Hyclone, Cat #SV30079.01). Media was changed every day till the cells were 100% confluent. Cells were seeded into T75 flasks (pre-coated with 5 mL of 3T3 conditioned media for more than 12 hrs) at 4.95×10^5 cells/T75 flask in 15 mL of HBE growth media. Flasks were fed everyday with fresh HBE growth media until the cells were confluent. 24-well transwell plates (Corning, Cat #3378) were coated with 3T3 conditioned media (70 μL on top of the filter, 350 μL to the bottom of the well) overnight in the 37° C. CO2 incubator. Cells were seeded in the pre-coated 24-well transwell plates at 1.7×10^5 cell/well with 700 μL of growth media at the bottom of the well and 200 μL of growth media at the top of the filter. After 24 hrs, cells were switched into HBE differentiation media ((DMEM/F12 (Gibco, Cat #11330-032) supplement with 2% Ultroser G (Pall, Cat #15950-017), 2% of Fetal Clone II (Hyclone, Cat #SH30066.03), 0.25% Bovine Brain Extract (Lonza, Cat #CC-4098), 1% of PSA, 2.5 μg/mL of Insulin (Sigma, Cat #19278), 20 nM of Hydrocortisone (Sigma, Cat #H0888), 500 nM of Triiodothyronine (Sigma, Cat #T6397), 2.5 μg/mL of Transferrin (Sigma, Cat #T8158), 250 nM of Ethanolamine (Sigma, Cat #E0135), 1.5 μM of Epinephrine (Sigma, Cat #E4250), 250 nM of Phosphoethanolamine (Sigma, Cat #P0503), 10 nM of retinoic acid)) with 200 μL on top of the filter (apical side) and 700 μL at the bottom of the well (basolateral side). Cells were fed every other day with the differentiation media. After 4 days, cells were exposed to air/liquid interface. Then cells were fed every other day for 4 weeks before fully differentiated.
Cells were washed with 3 mM DTT in PBS at 70 ul/well for 30 min at 37° C. 6 days before the assay. 3 days before the assay, cells were washed again with PBS at 70 ul/well for 30 min at 37° C. Then cells were treated with compound for 24 hrs before the assay.
Following 24 hr treatment with compound, cells were transferred into plates containing 750 ul of assay media on basolateral side and 250 ul on apical side (Assay medium: F-12 Coon's modified, 20 mM HEPES pH7.4 with TRIS Base, No FCS or bicarbonate). The plates wee then transferred to the heated plate compartments (basolateral buffer temperature ˜36.5° C. on the heating block) of the TECC24 system for 45 mins prior to measurements.
Modulators were added sequentially as follows while the TECC24 instrument recorded the equivalent short circuit current (Ieq):
Prior to dilution into assay medium the stocks were as follows: • Benzamil stock: 10 mM in DMSO • Forskolin Stock: 50 mM in DMSO • N-(2,4-di-tert-butyl-5-hydroxyphenyl)-1,4-dihydro-4-oxoquinoline-3-carboxamide: 50 mM in DMSO • (S)-3-amino-6-methoxy-N-(3,3,3-trifluoro-2-hydroxy-2-methylpropyl)-5-(trifluoromethyl)picolinamide: 50 mM stock 100% DMSO • Bumetanide stock: 20 mM in EtOH
The data was normalized using the median signal from wells treated with 0.1% DMSO as a baseline. Curve fitting and EC50 calculations were performed using the following equation: […]

delF508-CFTR [2] = target: T1, delF508-CFTR; test: Measurement of delF508-CFTR-HRP surface expression in CFBE41o- cells; type: cell-based; settings: for EC50: HRP-tagged delF508-CFTR in CFBE41o- cells, 24 h with compound, luminescence, 10-point curve, top 10 μM; for Emax: efficacy relative to reference compound 3-(6-(1-(2,2-difluorobenzo[d][1,3]dioxol-5-yl)cyclopropane-1-carboxamido)-3-methylpyridin-2-yl)benzoic acid, CFBE41o- cells, 24 h, read-out: DelF508-CFTR-HRP Amax %
Method in brief: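 CFBE41o- cells stably expressing delF508-CFTR with HRP in the fourth extracellular loop, induced with 500 ng/mL doxycycline for 48 h, then treated with compound (top 10 μM, 10-point 3-fold) for 24 h at 37° C. Surface HRP detected by luminescence with cell-impermeant substrate; EC50 from logistic fit of triplicates, normalized to lowest concentration.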

EC50 (delF508-CFTR [1]) [nM] | MTECC24-CFHBEC Amax % (delF508-CFTR [1]) [%] | EC50 (delF508-CFTR [2]) [nM] | Emax (delF508-CFTR [2]) [%] | Compound
179 | 247 | 1450 | – | CCCN(CCC(=O)O)c1cccc(S(=O)(=O)Nc2ccc(C(F)(F)F)c(-c3ccccc3C)n2)n1 [Compound 148, 3-(propyl(6-(N-(6-(o-tolyl)-5-(trifluoromethyl)pyridin-2-yl)sulfamoyl)pyridin-2-yl)amino)propanoic Acid]
9 | 150 | 1220 | – | Cc1ccccc1-c1nc(NS(=O)(=O)c2cccc(N3CCC[C@H](CCC(=O)O)C3)n2)ccc1C(F)(F)F (single isomer, unassigned) [Compound 62]
4 | 190 | 1360 | – | CCc1ccccc1-c1nc(NS(=O)(=O)c2cccc(N(CC)CCCC(=O)O)n2)ccc1C(F)(F)F [Compound 97, 4-(ethyl(6-(N-(6-(2-ethylphenyl)-5-(trifluoromethyl)pyridin-2-yl)sulfamoyl)pyridin-2-yl)amino)butanoic Acid]
17 | 149 | 1460 | – | Cc1ccccc1-c1nc(NS(=O)(=O)c2cccc(N3CCC[C@@H](CCC(=O)O)C3)n2)ccc1C(F)(F)F (single isomer, unassigned) [Compound 63]
161 | 168 | 1630 | – | Cc1c(F)cccc1-c1nc(NS(=O)(=O)c2cccc(N(C)CCCCC(=O)O)n2)ccc1C(F)(F)F [Compound 67, 5-((6-(N-(6-(3-fluoro-2-methylphenyl)-5-(trifluoromethyl)pyridin-2-yl)sulfamoyl)pyridin-2-yl)(methyl)amino)pentanoic Acid]
373 | 131 | 2170 | 906 | CCN(CCC(=O)O)c1cccc(S(=O)(=O)Nc2ccc(C(F)(F)F)c(-c3cccc(F)c3C)n2)n1 [Compound 56, 3-(ethyl(6-(N-(6-(3-fluoro-2-methylphenyl)-5-(trifluoromethyl)pyridin-2-yl)sulfamoyl)pyridin-2-yl)amino)propanoic Acid]
105 | 95 | 1930 | – | CCN(CCC(=O)O)c1cccc(S(=O)(=O)Nc2ccc(C(F)(F)F)c(-c3ccccc3C3CC3)n2)n1 [Compound 80, 3-((6-(N-(6-(2-cyclopropylphenyl)-5-(trifluoromethyl)pyridin-2-yl)sulfamoyl)pyridin-2-yl)(ethyl)amino)propanoic Acid]
30 | 152 | 1410 | – | CCc1ccccc1-c1nc(NS(=O)(=O)c2cccc(N3CCC[C@@H](CC(=O)O)C3)n2)ccc1C(F)(F)F [Compound 85, (S)-2-(1-(6-(N-(6-(2-ethylphenyl)-5-(trifluoromethyl)pyridin-2-yl)sulfamoyl)pyridin-2-yl)piperidin-3-yl)acetic Acid]
327 | 95 | 1380 | – | CCCN(CCCC(=O)O)c1cccc(S(=O)(=O)Nc2ccc(C(F)(F)F)c(-c3cc(F)ccc3C)n2)n1 [Compound 131, 4-((6-(N-(6-(5-fluoro-2-methylphenyl)-5-(trifluoromethyl)pyridin-2-yl)sulfamoyl)pyridin-2-yl)(propyl)amino)butanoic Acid]
114 | 189 | 1370 | – | Cc1ccccc1-c1nc(NS(=O)(=O)c2cccc(N(CCCC(=O)O)CCC(F)(F)F)n2)ccc1C(F)(F)F [Compound 134, 4-((6-(N-(6-(o-tolyl)-5-(trifluoromethyl)pyridin-2-yl)sulfamoyl)pyridin-2-yl)(3,3,3-trifluoropropyl)amino)butanoic Acid]
26 | 208 | 1370 | – | Cc1ccccc1-c1nc(NS(=O)(=O)c2cccc(N(CCCC(=O)O)C(C)C)n2)ccc1C(F)(F)F [Compound 94, 4-(isopropyl(6-(N-(6-(o-tolyl)-5-(trifluoromethyl)pyridin-2-yl)sulfamoyl)pyridin-2-yl)amino)butanoic acid]
104 | 269 | 1380 | – | CCCCN(CCCC(=O)O)c1cccc(S(=O)(=O)Nc2ccc(C(F)(F)F)c(-c3ccccc3C)n2)n1 [Compound 87, 4-(butyl(6-(N-(6-(o-tolyl)-5-(trifluoromethyl)pyridin-2-yl)sulfamoyl)pyridin-2-yl)amino)butanoic Acid]
40 | 235 | 1430 | – | CCc1ccc(F)cc1-c1nc(NS(=O)(=O)c2cccc(N(C)CCCC(=O)O)n2)ccc1C(F)(F)F [Compound 93, 4-((6-(N-(6-(2-ethyl-5-fluorophenyl)-5-(trifluoromethyl)pyridin-2-yl)sulfamoyl)pyridin-2-yl)(methyl)amino)butanoic Acid]
101 | 211 | 1680 | – | CCN(CCCC(=O)O)c1cccc(S(=O)(=O)Nc2ccc(C(F)(F)F)c(-c3ccccc3C)n2)n1 [Compound 114, 4-(ethyl(6-(N-(6-(o-tolyl)-5-(trifluoromethyl)pyridin-2-yl)sulfamoyl)pyridin-2-yl)amino)butanoic Acid]
6 | 182 | 1030 | – | CCc1ccc(F)cc1-c1nc(NS(=O)(=O)c2cccc(N(CC)CCCC(=O)O)n2)ccc1C(F)(F)F [Compound 110, 4-(ethyl(6-(N-(6-(2-ethyl-5-fluorophenyl)-5-(trifluoromethyl)pyridin-2-yl)sulfamoyl)pyridin-2-yl)amino)butanoic Acid]
230 | 158 | 920 | 549 | CCCN(CCCC(=O)O)c1cccc(S(=O)(=O)Nc2ccc(Cl)c(-c3ccccc3C)n2)n1 [Compound 156, 4-((6-(N-(5-chloro-6-(o-tolyl)pyridin-2-yl)sulfamoyl)pyridin-2-yl)(propyl)amino)butanoic Acid]
31 | 277 | 1110 | – | Cc1ccccc1-c1nc(NS(=O)(=O)c2cccc(N(CCC(=O)O)CC(C)C)n2)ccc1C(F)(F)F [Compound 128, 3-(isobutyl(6-(N-(6-(o-tolyl)-5-(trifluoromethyl)pyridin-2-yl)sulfamoyl)pyridin-2-yl)amino)propanoic Acid]
